Data as given in patent publication US20010007862A1, “METHOD OF SELECTING A SALT FOR MAKING AN INCLUSION COMPLEX” (priority 1996, published 2001).
Where a name gives a salt, the structure may show the parent alone.

Test: Equilibrium solubility of ziprasidone salts in 40% (w/v) aqueous SBECD
Conditions: 40% SBECD
Excerpt: Many different experimental protocols can be envisioned and implemented.

SMILES: O=C1Cc2cc(CCN3CCN(c4nsc5ccccc45)CC3)c(Cl)cc2N1 [mesylate, Ziprasidone Mesylate]
- Rank of solubility among salt candidates and cyclodextrin solutions tested: highest solubility
